The test system of assay [1] is IRF3 signaling pathway in THP1-Lucia™ ISG cells. The assay is described as follows: THP1-Lucia ISG reporter assay: induction of IRF3-dependent gene expression (secreted luciferase). The assay is classed as cell-based, human. The conditions noted are these: PMA-differentiated cells, 18 h after stimulation. The method, boiled down: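 PMA-differentiated THP-1 reporter cells (ISRE/ISG54 promoter driving secreted luciferase), plus CRISPR IRF3−/− line, treated with compounds at 5–20 μM (mostly 10 μM). Luciferase measured 18 h later; values are fold increase over untreated background, binned from <2.4 to ≥40.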

The subject of assay [2] is IRF3-deficient THP1-Lucia™ ISG IRF3−/− cells. In words: THP1-Lucia ISG IRF3−/− reporter assay (IRF3-deficient control cells). The assay is classed as cell-based, human. The conditions noted are these: compound 5 to 20 μM, 18 h. The protocol: The promoter was comprised of five IFN-stimulated response elements (ISRE) fused to an ISG54 minimal promoter which is unresponsive to NF-kB or AP-1 pathways. […] The IRF3-deficient THP1-Lucia™ ISG IRF3−/−reporter cell line was generated by CRISPR technology from the parent THP1-Lucia™ ISG reporter cell line.
THP1-Lucia™ ISG cells and IRF3-deficient THP1-Lucia™ ISG IRF3−/−cells were differentiated with PMA (100 ng/ml) and stimulated with compounds at the indicated concentrations (5 to 20 μM), positive control, or not treated (background). Luciferase secretion was quantified using the QUANTI-Luc luciferase assay system (InvivoGen) 18 h after stimulation. Data are shown as fold increase luciferase activity over background in Table 7 and represent the IRF3-dependent ISG54 promoter activity by the THP1-Lucia™ ISG cells in response to compounds. […] The fold increase of compounds (10 μM, *20 μM, **5 μM) induced IRF3 dependent luciferase activity is indicated as follows: “≠” indicates less than 2.4 fold increase; “+” indicates a 2.4-4.9 fold increase; “++” indicates a 5-9.9 fold increase; “+++” indicates a 10-19 fold increase; “++++” indicates a 20-39 fold increase; “+++++” indicates greater than or equal to 40 fold increase.

Assay [3] has as its system murine CT26 colon carcinoma cells. The assay is described as follows: RIG-I dependent CXCL10 secretion by CT26 cells (ELISA). The assay is classed as cell-based. The note with it: supernatant 24 h after stimulation. A digest of the protocol: (§1)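 CT26 murine colon carcinoma cells, parental or CRISPR RIG-I−/−, seeded and grown 24 hr at 37° C, then treated with compounds at 10 μM, or at 5 or 20 μM for some. Secreted CXCL10 measured by ELISA in supernatants 24 h after treatment and reported in pg/mL bands.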

The subject of assay [4] is RIG-I deficient CT26 RIG-I−/− cells. In words: CXCL10 secretion by RIG-I deficient CT26 RIG-I−/− cells (ELISA). Note: key: −: about 0 pg/mL of CXCL10, or below the level of quantitation. The assay is classed as cell-based, murine. The conditions noted are these: compound 5 to 20 μM, 24 h. The method, boiled down: as §1
(In general: ELISA stands for enzyme-linked immunosorbent assay.)

Consider `O=C(Nc1cc2ccc3scnc3c2o1)c1cc2ccccc2cc1OCCCCN1CCOCC1` [Example 56, 3-[4-(morpholin-4-yl)butoxy]-N-{12-oxa-5-thia-3-azatricyclo [7.3.0.0^2,^6]dodeca-1,3,6,8,10-pentaen-11-yl}naphthalene-2-carboxamide], for which the “fold increase of IRF3-dependent luciferase activity over background, THP1 ISG” value (from here on “fold increase … over background, THP1 ISG”) in assay [1] (10 μM compound) is given as “+ (a 2.4-4.9 fold increase)”. The “fold increase of luciferase activity, THP1 ISG IRF3−/−” value (“fold increase of luciferase activity” for short) in assay [2] is given as “− (less than 0.5 fold above baseline was considered below the level of quantitation)”. For the same compound, the “CXCL10 secretion, CT26” value in assay [3] (10 μM compound) was “+++ (400-799 pg/mL)”. For the same compound, the “CXCL10 secretion, CT26 RIG-I−/−” value in assay [4] is listed as “−”.

As to `O=C(Nc1cc2ccc3scnc3c2s1)c1cc2ccsc2cc1OCCCCN1CCOCC1` [Example 66, N-{5,12-dithia-3-azatricyclo[7.3.0.0^2,^6]dodeca-1,3,6,8,10-pentaen-11-yl}-6-[4-(morpholin-4-yl)butoxy]-1-benzothiophene-5-carboxamide], in assay [1] (10 μM compound), the “fold increase … over background, THP1 ISG” value is recorded as “+ (a 2.4-4.9 fold increase)”. The “fold increase of luciferase activity” value in assay [2] is reported as “− (less than 0.5 fold above baseline was considered below the level of quantitation)”. The “CXCL10 secretion, CT26” value in assay [3] (10 μM compound) is given as “+++++ (greater than or equal to 1600 pg/ml)”. Further, in assay [4], the “CXCL10 secretion, CT26 RIG-I−/−” value was “−”.

Take `O=C(Nc1nc2ccc3[nH]cnc3c2s1)c1cc2ccccc2cc1OCCN1CCOCC1` [Example 72, 3-[2-(morpholin-4-yl)ethoxy]-N-{3-thia-5,10,12-triazatricyclo[7.3.0.0^2,^6]dodeca-1,4,6,8,11-pentaen-4-yl}naphthalene-2-carboxamide]: the “fold increase … over background, THP1 ISG” value in assay [1] (10 μM compound) is listed as “++ (a 5-9.9 fold increase)”. Moreover, the “fold increase of luciferase activity” value in assay [2] was “− (less than 0.5 fold above baseline was considered below the level of quantitation)”. In assay [3] (10 μM compound), the “CXCL10 secretion, CT26” value is “+++ (400-799 pg/mL)”. In addition, the “CXCL10 secretion, CT26 RIG-I−/−” value in assay [4] is “−”.

Turning to “N-(3-bromophenyl)-11-methyl-3,10-dithia-5,12-diazatricyclo[7.3.0.0^2,^6]dodeca-1,4,6,8,11-pentaene-4-carboxamide [Example 10]”, in assay [1] (10 μM compound), the “fold increase … over background, THP1 ISG” value is “+ (a 2.4-4.9 fold increase)”. In addition, the “fold increase of luciferase activity” value in assay [2] is reported as “− (less than 0.5 fold above baseline was considered below the level of quantitation)”. The “CXCL10 secretion, CT26” value in assay [3] (10 μM compound) is reported as “+++ (400-799 pg/mL)”. The “CXCL10 secretion, CT26 RIG-I−/−” value in assay [4] is “−”.

As to “N-[11-(methylsulfanyl)-3,10-dithia-5,12-diazatricyclo[7.3.0.0^2,^6]dodeca-1,4,6,8,11-pentaen-4-yl]-3-[4-(morpholin-4-yl)butoxy]naphthalene-2-carboxamide [Example 37]”, in assay [1] (10 μM compound), the “fold increase … over background, THP1 ISG” value is recorded as “+++ (a 10-19 fold increase)”. Besides, in assay [2], the “fold increase of luciferase activity” value is on record as “− (less than 0.5 fold above baseline was considered below the level of quantitation)”. For the same compound, the “CXCL10 secretion, CT26” value in assay [3] (10 μM compound) is on record as “++++ (800 to 1599 pg/mL)”. For the same compound, the “CXCL10 secretion, CT26 RIG-I−/−” value in assay [4] was “−”.

For the compound `O=C(Nc1nc2ccc3scnc3c2o1)c1cc2ccccc2cc1OCCCCN1CCOCC1` [Example 59, 3-[4-(morpholin-4-yl)butoxy]-N-{3-oxa-10-thia-5,12-diazatricyclo [7.3.0.0^2,^6]dodeca-1,4,6,8,11-pentaen-4-yl}naphthalene-2-carboxamide], the “fold increase … over background, THP1 ISG” value in assay [1] (10 μM compound) was “++ (a 5-9.9 fold increase)”. Further, the “fold increase of luciferase activity” value in assay [2] is recorded as “− (less than 0.5 fold above baseline was considered below the level of quantitation)”. Moreover, in assay [3] (10 μM compound), the “CXCL10 secretion, CT26” value is on record as “+++++ (greater than or equal to 1600 pg/ml)”. Also, in assay [4], the “CXCL10 secretion, CT26 RIG-I−/−” value was “−”.

Consider `O=C(Nc1cc2ccc3scnc3c2s1)c1cc2ccccc2cc1OCCCCN1CCOCC1` [Example 54, N-{5,12-dithia-3-azatricyclo[7.3.0.0^2,^6]dodeca-1,3,6,8,10-pentaen-11-yl}-3-[4-(morpholin-4-yl)butoxy]naphthalene-2-carboxamide], for which, in assay [1] (10 μM compound), the “fold increase … over background, THP1 ISG” value is recorded as “+++ (a 10-19 fold increase)”. The “fold increase of luciferase activity” value in assay [2] was “− (less than 0.5 fold above baseline was considered below the level of quantitation)”. Besides, the “CXCL10 secretion, CT26” value in assay [3] (10 μM compound) is “++++ (800 to 1599 pg/mL)”. In addition, the “CXCL10 secretion, CT26 RIG-I−/−” value in assay [4] is reported as “−”.

As to `O=C(Nc1nc2ccc3occc3c2s1)c1cc2ccccc2cc1OCCN1CCOCC1` [Example 51, 3-[2-(morpholin-4-yl)ethoxy]-N-{10-oxa-3-thia-5-azatricyclo[7.3.0.0^2,^6]dodeca-1,4,6,8,11-pentaen-4-yl}naphthalene-2-carboxamide], the “fold increase … over background, THP1 ISG” value in assay [1] (10 μM compound) is given as “+++ (a 10-19 fold increase)”. For the same compound, the “fold increase of luciferase activity” value in assay [2] is on record as “− (less than 0.5 fold above baseline was considered below the level of quantitation)”. The “CXCL10 secretion, CT26” value in assay [3] (10 μM compound) is given as “+++ (400-799 pg/mL)”. In assay [4], the “CXCL10 secretion, CT26 RIG-I−/−” value is “−”.

As to `O=C(Nc1nc2c(ccc3scnc32)[nH]1)c1ccc2ccccc2c1` [Example 48, N-{5-thia-3,10,12-triazatricyclo[7.3.0.0^2,^6]dodeca-1,3,6,8,11-pentaen-11-yl}naphthalene-2-carboxamide], the “fold increase … over background, THP1 ISG” value in assay [1] (20 μM compound (*)) is on record as “++* (a 5-9.9 fold increase)”. The “fold increase of luciferase activity” value in assay [2] is recorded as “− (less than 0.5 fold above baseline was considered below the level of quantitation)”. Further, the “CXCL10 secretion, CT26” value in assay [3] (20 μM compound (*)) was “++++* (800 to 1599 pg/mL)”. Also, the “CXCL10 secretion, CT26 RIG-I−/−” value in assay [4] was “−”.

On to `O=C(Nc1cc2ccc3scnc3c2o1)c1cc2ccccc2cc1OCCN1CCOCC1` [Example 57, 3-[2-(morpholin-4-yl)ethoxy]-N-{12-oxa-5-thia-3-azatricyclo [7.3.0.0^2,^6]dodeca-1,3,6,8,10-pentaen-11-yl}naphthalene-2-carboxamide], for which, in assay [1] (10 μM compound), the “fold increase … over background, THP1 ISG” value is “+++ (a 10-19 fold increase)”. Also, the “fold increase of luciferase activity” value in assay [2] is on record as “− (less than 0.5 fold above baseline was considered below the level of quantitation)”. Besides, in assay [3] (20 μM compound (*)), the “CXCL10 secretion, CT26” value was “++* (200-399 pg/mL)”. Further, in assay [4], the “CXCL10 secretion, CT26 RIG-I−/−” value was “−”.

For “N-{5,12-dithia-3-azatricyclo[7.3.0.0^2,^6]dodeca-1,3,6,8,10-pentaen-11-yl}-3-[2-(morpholin-4-yl)ethoxy]-[1,1′-biphenyl]-4-carboxamide [Example 61]”, in assay [1] (10 μM compound), the “fold increase … over background, THP1 ISG” value is “++++ (a 20-39 fold increase)”. Moreover, the “fold increase of luciferase activity” value in assay [2] is listed as “− (less than 0.5 fold above baseline was considered below the level of quantitation)”. In assay [3] (5 μM compound (**)), the “CXCL10 secretion, CT26” value is given as “++** (200-399 pg/mL)”. Further, in assay [4], the “CXCL10 secretion, CT26 RIG-I−/−” value is recorded as “−”.

As for `Cn1c(C(=O)Nc2cc3ccc4scnc4c3s2)cc2ccccc21` [Example 60, N-{5,12-dithia-3-azatricyclo[7.3.0.0^2,^6]dodeca-1,3,6,8,10-pentaen-11-yl}-1-methyl-1H-indole-2-carboxamide], the “fold increase … over background, THP1 ISG” value in assay [1] (20 μM compound (*)) is “+* (a 2.4-4.9 fold increase)”. The “fold increase of luciferase activity” value in assay [2] was “− (less than 0.5 fold above baseline was considered below the level of quantitation)”. Besides, in assay [3] (20 μM compound (*)), the “CXCL10 secretion, CT26” value is reported as “+* (100-199 pg/mL)”. Moreover, the “CXCL10 secretion, CT26 RIG-I−/−” value in assay [4] was “−”.

The values above are taken from US20200055871A1, “ACTIVATORS OF THE RETINOIC ACID INDUCIBLE GENE "RIG-I" PATHWAY AND METHODS OF USE THEREOF” (Kineta Immuno-Oncology LLC, priority 2018, published 2020).
